Assay results as given in US10329289B2, “6,7-dihydro-5H-pyrrolo[3,4-B]pyridin-5-one allosteric modulators of the M4 muscarinic acetylcholine receptor” (Merck Sharp & Dohme Corp., priority 2015, dated 2019).
pEC50: −log10 of the molar value.

The compounds below were run against T1, human M4 muscarinic acetylcholine receptor (Homo sapiens, UniProt P08173) (assay: human FLIPR-based M4 PAM assay (Ca2+ mobilization, CHO-K1 cells with human M4 receptor and Gαqi5)). Details: acetylcholine at 20% of maximum response, read-out: M4 PAM IP.
T1 construct: expressed in transfected cells; host or cells: CHO-K1
T1 sequence (P08173 1-479): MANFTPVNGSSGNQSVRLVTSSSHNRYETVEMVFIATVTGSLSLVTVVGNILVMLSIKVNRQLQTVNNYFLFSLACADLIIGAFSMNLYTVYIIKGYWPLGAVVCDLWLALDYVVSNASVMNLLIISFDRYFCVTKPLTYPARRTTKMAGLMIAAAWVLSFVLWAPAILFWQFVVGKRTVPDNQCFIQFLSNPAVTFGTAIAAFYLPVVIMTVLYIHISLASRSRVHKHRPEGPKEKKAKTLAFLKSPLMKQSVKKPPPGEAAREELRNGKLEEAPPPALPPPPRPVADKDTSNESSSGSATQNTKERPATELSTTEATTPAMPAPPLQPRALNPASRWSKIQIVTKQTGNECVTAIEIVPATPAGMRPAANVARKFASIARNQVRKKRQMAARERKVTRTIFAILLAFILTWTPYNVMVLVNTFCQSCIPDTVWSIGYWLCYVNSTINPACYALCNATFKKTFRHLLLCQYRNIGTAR
Format: cell-based
Summary of the method: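 CHO-K1 cells stably expressing human M4 and chimeric Gαqi5 were dye-loaded ~1 h at 37 °C and read for Ca2+ fluorescence. Compound followed by acetylcholine at an EC20 (sometimes an EC70 third addition); inflection point from a 4-parameter logistic fit.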

pEC50 | SMILES
7.38 | Cc1cc2c(nc1N1CCC(Oc3cccc(F)c3)CC1)CNC2=O [Example 71]
7.52 | Cc1cc2c(nc1N1CCC(Oc3ccc(F)cc3)CC1)CNC2=O [Example 72, 2-(4-(4-fluorophenoxy)piperidin-1-yl)-3-methyl-6,7-dihydro-5H-pyrrolo[3,4-b]pyridin-5-one]
5.65 | Cc1cc2c(nc1N1CCC(Oc3ccccc3Cl)CC1)CNC2=O [Example 73, 2-(4-(2-chlorophenoxy)piperidin-1-yl)-3-methyl-6,7-dihydro-5H-pyrrolo[3,4-b]pyridin-5-one]
7.34 | Cc1cc2c(nc1N1CCC(Oc3cccc(Cl)c3)CC1)CNC2=O [Example 74, 2-(4-(3-chlorophenoxy)piperidin-1-yl)-3-methyl-6,7-dihydro-5H-pyrrolo[3,4-b]pyridin-5-one]
6.63 | Cc1cc2c(nc1N1CCC(Oc3ccccc3F)CC1)CNC2=O [Example 75, 2-(4-(2-fluorophenoxy)piperidin-1-yl)-3-methyl-6,7-dihydro-5H-pyrrolo[3,4-b]pyridin-5-one]
7.10 | Cc1cc2c(nc1N1CCC(Oc3ccc(Cl)cc3)CC1)CNC2=O [Example 76, 2-(4-(4-chlorophenoxy)piperidin-1-yl)-3-methyl-6,7-dihydro-5H-pyrrolo[3,4-b]pyridin-5-one]
6.67 | Cc1cc2c(nc1N1CCC(Oc3ccncc3)CC1)CNC2=O [Example 77, 3-methyl-2-(4-(pyridin-4-yloxy)piperidin-1-yl)-6,7-dihydro-5H-pyrrolo[3,4-b]pyridin-5-one]
7.48 | Cc1cccc(OC2CCN(c3nc4c(cc3C)C(=O)NC4)CC2)c1 [Example 78, 3-methyl-2-(4-(m-tolyloxy)piperidin-1-yl)-6,7-dihydro-5H-pyrrolo[3,4-b]pyridin-5-one]
5.64 | Cc1ccccc1OC1CCN(c2nc3c(cc2C)C(=O)NC3)CC1 [Example 79, 3-methyl-2-(4-(o-tolyloxy)piperidin-1-yl)-6,7-dihydro-5H-pyrrolo[3,4-b]pyridin-5-one]
7.16 | Cc1cc2c(nc1N1CCC(Oc3ccc4ocnc4c3)CC1)CNC2=O [Example 80, 2-(4-(benzo[d]oxazol-5-yloxy)piperidin-1-yl)-3-methyl-6,7-dihydro-5H-pyrrolo[3,4-b]pyridin-5-one]
7.43 | Cc1cc2c(nc1N1CCC(Oc3ccc(F)c(F)c3)CC1)CNC2=O [Example 81, 2-(4-(3,4-difluorophenoxy)piperi-din-1-yl)-3-methyl-6,7-dihydro-5H-pyrrolo[3,4-b]pyridin-5-one]
6.92 | Cc1ccc(OC2CCN(c3nc4c(cc3C)C(=O)NC4)CC2)cc1Cl [Example 82, 2-(4-(3-chloro-4-methylphenoxy)piperidin-1-yl)-3-methyl-6,7-dihydro-5H-pyrrolo[3,4-b]pyridin-5-one]
7.32 | Cc1ccc(OC2CCN(c3nc4c(cc3C)C(=O)NC4)CC2)cc1 [Example 83, 3-methyl-2-(4-(p-tolyloxy)piperidin-1-yl)-6,7-dihydro-5H-pyrrolo[3,4-b]pyridin-5-one]
6.64 | Cc1cc2c(nc1N1CCC(Oc3ccc(C#N)cc3)CC1)CNC2=O [Example 84, 4-((1-(3-methyl-5-oxo-6,7-dihydro-5H-pyrrolo[3,4-b]pyridin-2-yl)piperidin-4-yl)oxy)benzonitrile]
5.58 | Cc1cc2c(nc1N1CCC(Oc3ccc(C#N)nc3)CC1)CNC2=O [Example 85, 5-((1-(3-methyl-5-oxo-6,7-dihydro-5H-pyrrolo[3,4-b]pyridin-2-yl)piperidin-4-yl)oxy)picolinonitrile]
5.24 | Cc1cc2c(nc1N1CCC(Oc3ccon3)CC1)CNC2=O [Example 86, 2-(4-(isoxazol-3-yloxy)piperidin-1-yl)-3-methyl-6,7-dihydro-5H-pyrrolo[3,4-b]pyridin-5-one]
6.00 | COC(=O)c1ccc(OC2CCN(c3nc4c(cc3C)C(=O)NC4)CC2)cn1 [Example 87, methyl 5-((1-(3-methyl-5-oxo-6,7-dihydro-5H-pyrrolo[3,4-b]pyridin-2-yl)piperidin-4-yl)oxy)picolinate]
6.42 | Cc1cc2c(nc1N1CCC(Oc3ccc(C(F)(F)F)nc3)CC1)CNC2=O [Example 88, 3-methyl-2-(4-((6-(trifluoromethyl)pyridin-3-yl)oxy)piperidin-1-yl)-6,7-dihydro-5H-pyrrolo[3,4-b]pyridin-5-one]
7.08 | Cc1cc2c(nc1N1CCC(Oc3ccc4ncoc4c3)CC1)CNC2=O [Example 89, 2-(4-(benzo[d]oxazol-6-yloxy)piperidin-1-yl)-3-methyl-6,7-dihydro-5H-pyrrolo[3,4-b]pyridin-5-one]
7.03 | COc1cc(OC2CCN(c3nc4c(cc3C)C(=O)NC4)CC2)ccn1 [Example 90, 2-(4-((2-methoxypyridin-4-yl)oxy)piperidin-1-yl)-3-methyl-6,7-dihydro-5H-pyrrolo[3,4-b]pyridin-5-one]
7.22 | Cc1cc2c(nc1N1CCC(Oc3ccc(F)nc3)CC1)CNC2=O [Example 91, 2-(4-((6-fluoropyridin-3-yl)oxy)piperidin-1-yl)-3-methyl-6,7-dihydro-5H-pyrrolo[3,4-b]pyridin-5-one]
6.34 | Cc1cc2c(nc1N1CCC(Oc3ccc4cccnc4c3)CC1)CNC2=O [Example 92, 3-methyl-2-(4-(quinolin-7-yloxy)piperidin-1-yl)-6,7-dihydro-5H-pyrrolo[3,4-b]pyridin-5-one]
6.03 | Cc1cc2c(nc1N1CCC(Oc3ccnc(C#N)c3)CC1)CNC2=O [Example 93, 4-((1-(3-methyl-5-oxo-6,7-dihydro-5H-pyrrolo[3,4-b]pyridin-2-yl)piperidin-4-yl)oxy)picolinonitrile]
6.83 | CCc1cc2c(nc1N1CCC(Oc3cccc(C#N)c3)CC1)CNC2=O [Example 93A, 3-((1-(3-ethyl-5-oxo-6,7-dihydro-5H-pyrrolo[3,4-b]pyridin-2-yl)piperidin-4-yl)oxy)benzonitrile]
5.76 | COc1ncc(OC2CCN(c3nc4c(cc3C)C(=O)NC4)CC2)cn1 [Example 94, 2-(4-((2-methoxypyrimidin-5-yl)oxy)piperidin-1-yl)-3-methyl-6,7-dihydro-5H-pyrrolo[3,4-b]pyridin-5-one]
6.71 | Cc1c(N2CCC(Oc3cccc(C#N)c3)CC2)nc2c(c1C)C(=O)NC2 [Example 94A, 3-((1-(3,4-dimethyl-5-oxo-6,7-dihydro-5H-pyrrolo[3,4-b]pyridin-2-yl)piperidin-4-yl)oxy)benzonitrile]
6.06 | COc1cncc(OC2CCN(c3nc4c(cc3C)C(=O)NC4)CC2)c1 [Example 101, 2-(4-((5-methoxypyridin-3-yl)oxy)piperidin-1-yl)-3-methyl-6,7-dihydro-5H-pyrrolo[3,4-b]pyridin-5-one]
6.16 | Cc1cc2c(nc1N1CCC(Oc3ccnc(OC(F)(F)F)c3)CC1)CNC2=O [Example 102, 3-methyl-2-(4-((2-(trifluoromethoxy)pyri-din-4-yl)oxy)piperidin-1-yl)-6,7-dihydro-5H-pyrrolo[3,4-b]pyridin-5-one]
6.86 | Cc1cc2c(nc1N1CCC(Oc3cncc(F)c3)CC1)CNC2=O [Example 103, 2-(4-((5-fluoropyridin-3-yl)oxy)piperidin-1-yl)-3-methyl-6,7-dihydro-5H-pyrrolo[3,4-b]pyridin-5-one]

SMILES | pEC50
Cc1cc2c(nc1N1[C@@H]3CC[C@H]1C[C@@H](Oc1cccc(C#N)c1)C3)CNC2=O [Example 95, 3-((endo-8-(3-methyl-5-oxo-6,7-dihydro-5H-pyrrolo[3,4-b]pyridin-2-yl)-8-azabicyclo[3.2.1]octan-3-yl)oxy)benzonitrile] | 6.21
Cc1cc2c(nc1N1[C@@H]3CC[C@H]1C[C@H](Oc1cccc(C#N)c1)C3)CNC2=O [Example 96, 3-((exo-8-(3-methyl-5-oxo-6,7-dihydro-5H-pyrrolo[3,4-b]pyridin-2-yl)-8-azabicyclo[3.2.1]octan-3-yl)oxy)benzonitrile] | 5.85
COc1ccc(O[C@H]2C[C@H]3CC[C@@H](C2)N3c2nc3c(cc2C)C(=O)NC3)cn1 [Example 97, 2-(endo-3-((6-methoxypyridin-3-yl)oxy)-8-azabicyclo[3.2.1]octan-8-yl)-3-methyl-6,7-dihydro-5H-pyrrolo[3,4-b]pyridin-5-one] | 6.10
Cc1cc2c(nc1N1[C@@H]3CC[C@H]1C[C@H](Oc1ccc4c(cnn4C)c1)C3)CNC2=O [Example 98, 3-methyl-2-(exo-3-((1-methyl-1H-indazol-5-yl)oxy)-8-azabicyclo[3.2.1]octan-8-yl)-6,7-dihydro-5H-pyrrolo[3,4-b]pyridin-5-one] | 6.28
COc1ccc(O[C@@H]2C[C@H]3CC[C@@H](C2)N3c2nc3c(cc2C)C(=O)NC3)cn1 [Example 99, 2-(exo-3-((6-methoxypyridin-3-yl)oxy)-8-azabicyclo[3.2.1]octan-8-yl)-3-methyl-6,7-dihydro-5H-pyrrolo[3,4-b]pyridin-5-one] | 6.13
Cc1cc2c(nc1N1[C@@H]3CC[C@H]1C[C@@H](Oc1ccc4c(cnn4C)c1)C3)CNC2=O [Example 100, 3-methyl-2-(endo-3-((1-methyl-1H-indazol-5-yl)oxy)-8-azabicyclo[3.2.1]octan-8-yl)-6,7-dihydro-5H-pyrrolo[3,4-b]pyridin-5-one] | 5.99
